Assays:
[1] = Blood level in the rat after one-time intravenous injection; format: in vivo; conditions: one-time i.v. injection, Ultravist 300 mg I/kg, example 4c 200 mg I/kg, especially first 10 minutes, average of three animals, FIG. 1
Description: The blood level in the rat was determined after one-time intravenous injection of 300 mg of I/kg of body weight of Ultravist®[]. and 200 mg of I/kg of body weight of the compound of example 4c [.diamond.]. The data represent the average value from three animals each.

[2] = Elimination from and retention in the body of the rat; format: in vivo

Row | route of elimination [2] | elimination from the body ([2]; dose 100 mg of I/kg) | retention in the organs liver, kidney and spleen as well as in the remainder of the body ([2]; dose 100 mg of I/kg, 14 days after administration) | Molecule | blood concentration over time, standardized to the administered dose [1]
1 | – | – | – | COCC(=O)Nc1c(I)c(C(=O)NCC(O)CO)c(I)c(C(=O)N(C)CC(O)CO)c1I (centres unmarked) [Ultravist, reference compound] | very much more quickly
2 | mainly through the kidney | complete elimination | 0.36 % of the dose | Octatetracontakis-{3-sodium carboxylatoformylamino-5-(2,3-dihydroxypropylcarbamoyl)-2,4,6-triiodobenzoyl} derivative of the lysine-alanine copolymer (K5)8 K4 K2 K-A--OH [Example 4] | remains very much longer in the blood space
